# In patent publication US20250213574A1, “THERAPEUTIC COMBINATIONS COMPRISING UBIQUITIN- SPECIFIC-PROCESSING PROTEASE 1 (USP1) INHIBITORS AND CHEMOTHERAPY AGENTS” (KSQ Therapeutics, Inc., priority 2022, published 2025):
# Where “and” joins values, the source holds several entries; their conditions need not be identical. Identical values can stand only once.
# Key:
# [1] = Maximum tolerated dose of Compound 1 cocrystal in combination with cisplatin, non-tumor bearing mice; settings: non-tumor bearing female Balb/c nude mice; Compound 1 oral gavage once daily 28 days + cisplatin i.v. once a week days 0, 7, 14, 21
# Method: The maximum tolerated dose (MTD) of the USP1 inhibitor Compound 1 cocrystal in combination with cisplatin was evaluated in non-tumor bearing Balb/c nude mice. 6-8 week old female Balb/c nude mice from Beijing Anikeeper Biotech Co. Ltd were randomized into groups of 5 for control, cisplatin (4 mg/kg) alone, cisplatin (5 mg/kg) alone, cisplatin (6 mg/kg) alone, Compound 1 (50 mg/kg) and cisplatin (4 mg/kg) combination group, Compound 1 (100 mg/kg) and cisplatin (4 mg/kg) combination group, Compound 1 (300 mg/kg) and cisplatin (4 mg/kg) combination group, Compound 1 (50 mg/kg) and cisplatin (5 mg/kg) combination group, Compound 1 (100 mg/kg) and cisplatin (5 mg/kg) combination group, Compound 1 (300 mg/kg) and cisplatin (5 mg/kg) combination group, Compound 1 (50 mg/kg) and cisplatin (6 mg/kg) combination group, Compound 1 (100 mg/kg) and cisplatin (6 mg/kg) combination group, and Compound 1 (300 mg/kg) and cisplatin (6 mg/kg) combination group. Mice were treated with the relevant dose of Compound 1 via oral gavage once daily for 28 days or relevant dose of cisplatin via intravenous injection once a week on days 0, 7, 14, and 21. […]
# Body weights were measured daily. Tolerability was assessed by monitoring body weight and calculating body weight changes as % from body weight on day of treatment start (day 0), as shown in FIG. 1-3. […]
# HBCx9 = test: Colony formation (CFU) assay, HBCx9; format: cell-based; settings: HBCx9, breast
# Method: (§1) In vitro experiments were conducted using the colony formation unit (CFU) assay on various cell lines. The CFU assay involved first establishing what cell plating density enabled the development of clearly interspersed colonies on a six-well plate when left to grow for around 14 days. […] At or around day 14 when clearly interspersed colonies were visible in the DMSO-treated wells, the cells were fixed and stained using 0.1% crystal violet in 10% ethanol for 20 minutes at room temperature. The plates were imaged then the amount of crystal violet stain in each well was quantified by extracting the crystal violet into 10% acetic acid and the absorbance measured at 565 nm.
# (§2) For certain cell lines, multiple IC50 values were taken, and those are separated by commas. Synergy scores are in parentheticals.
# HBCx8 = test: Colony formation (CFU) assay, HBCx8; format: cell-based; settings: HBCx8, breast
# Method: as §1, §2
# KU1919 = test: Colony formation (CFU) assay, KU1919; format: cell-based; settings: KU1919, bladder
# Method: as §1, §2
# 5637 = test: Colony formation (CFU) assay, 5637; format: cell-based; settings: 5637, bladder
# Method: as §1, §2
# SUM149PT = test: Colony formation (CFU) assay, SUM149PT; format: cell-based; settings: breast
# Method: as §1, §2
# HT1376 = test: Colony formation (CFU) assay, HT1376; format: cell-based; settings: HT1376, bladder
# Method: as §1, §2
# HCC1806 = test: Colony formation (CFU) assay, HCC1806; format: cell-based; settings: HCC1806, breast; CFU ~14 days; wells with DMSO or 300 nM Compound 1; read-out: Chemotherapy nM IC50s (converted)
# Method: as §1, §2
# A549 = test: Colony formation (CFU) assay, A549; format: cell-based; settings: A549, lung
# Method: as §1, §2
# NCIH1650 = test: Colony formation (CFU) assay, NCIH1650; format: cell-based; settings: NCIH1650, lung
# Method: as §1, §2
# 647V = test: Colony formation (CFU) assay, 647V; format: cell-based; settings: bladder
# Method: as §1, §2
# NCIH596 = test: Colony formation (CFU) assay, NCIH596; format: cell-based; settings: NCIH596, lung
# Method: as §1, §2
# U2OS = test: Colony formation (CFU) assay, U2OS; format: cell-based; settings: bone
# Method: as §1, §2
# HCT116 = test: Colony formation (CFU) assay, HCT116; format: cell-based; settings: HCT116, colon; CFU ~14 days; wells with DMSO or 300 nM Compound 1; read-out: Chemotherapy nM IC50s
# Method: as §1, §2
# UBLC1 = test: Colony formation (CFU) assay, UBLC1; format: cell-based; settings: UBLC1, bladder
# Method: as §1, §2
# UMUC3 = test: Colony formation (CFU) assay, UMUC3; format: cell-based; settings: UMUC3, bladder
# Method: as §1, §2
# various cell lines = test: Colony formation (CFU) assay, summary over cell lines of Table 1; format: cell-based; settings: combination of USP1 inhibitor (Compound 1, 300 nM) and the chemotherapy agent
# Method: as §1
# In certain cell lines, combinations of the disclosure are synergistic. In some aspects, these combinations are determined to have a Bliss score is about 6, about 7, about 8, about 9, about 10, about 11, about 12, about 13, about 14, about 15, about 16, about 17, about 18, about 19, about 20 or about 25.
# [2] = single dose in Balb/c nude mice; Aston W., et al., BMC Cancer 17:684 (2017); cited from earlier work
# [3] = test system: HBCx-11 patient-derived breast xenograft; test: Anti-tumor activity, HBCx-11 patient-derived breast xenograft model; format: in vivo, Athymic nude mice; settings: Compound 1 100 mg/kg p.o. once daily 28 days + cisplatin 3 mg/kg i.v. once weekly x4; HBCx-11 PDX, nude mice; FIG. 8A
# Method: Six to nine week old female Athymic nude mice from Envigo were anesthetized and a 20 mm^3 tumor fragment placed subcutaneously via incision in the flank. When tumors established to a tumor volume of between 75 and 196 mm^3 mice were randomized into groups of 3 and were assigned into the following groups: control, Compound 1 (100 mg/kg), cisplatin (3 mg/kg) or Compound 1 (100 mg/kg) and cisplatin (3 mg/kg) combination. Cisplatin was administered intravenously via tail vein once weekly for a total of 4 doses. Compound 1 was administered via oral gavage once daily for 28 days. Body weight and tumor volume were measured twice per week. Tumor volume was calculated as mean and standard error of the mean for each treatment group.
# [4] = test system: MDA-MB-436 cell line-derived breast xenograft; test: Anti-tumor activity, MDA-MB-436 cell line-derived breast xenograft model; format: in vivo; settings: Compound 1 100 mg/kg p.o. once daily 28 days + cisplatin 2 mg/kg i.v. once weekly x4; MDA-MB-436, NOD SCID mice; FIG. 6A
# Method: Six to eight week old female NOD SCID mice from Beijing Anikeeper Biotech CO, Ltd were implanted subcutaneously with 1×10^7 MDA-MB-436 cells. When tumors established to a tumor volume of approximately 240 mm^3 mice were randomized into groups of 5 and were assigned into the following groups: control, cisplatin (2 mg/kg), Compound 1 (100 mg/kg) or Compound 1 (100 mg/kg) and cisplatin (2 mg/kg) combination. Cisplatin was administered intravenously via tail vein once weekly for a total of 4 doses. Compound 1 was administered via oral gavage once daily for 28 days. Body weight and tumor volume were measured twice per week. Tumor volume was calculated as mean and standard error of the mean for each treatment group.
# [5] = test system: HBCx-8 patient-derived breast xenograft; test: Anti-tumor activity, HBCx-8 patient-derived breast xenograft model; format: in vivo, Athymic nude mice; settings: Compound 1 100 mg/kg p.o. once daily 42 days + cisplatin 5 mg/kg i.v. once weekly x3; HBCx-8 PDX, nude mice; FIG. 7A
# Method: Six to nine week old female Athymic nude mice from Envigo were anesthetized and a 20 mm^3 tumor fragment placed subcutaneously via incision in the flank. […] Cisplatin was administered intravenously via tail vein once weekly for a total of 3 doses. Compound 1 was administered via oral gavage once daily for 42 days. Body weight and tumor volume were measured twice per week. Tumor volume was calculated as mean and standard error of the mean for each treatment group.
# BECKER = test: Colony formation (CFU) assay, BECKER; format: cell-based; settings: 336 h, CFU ~14 days, wells with DMSO or 300 nM Compound 1, read-out: Chemotherapy nM IC50s
# Method: as §1, §2
# U251MG = test: Colony formation (CFU) assay, U251MG; format: cell-based; settings: Homo sapiens, U-251, 336 h, nervous system, CFU ~14 days, wells with DMSO or 300 nM Compound 1, read-out: Chemotherapy nM IC50s
# Method: as §1, §2
# GOTO = test: Colony formation (CFU) assay, GOTO; format: cell-based; settings: 336 h, nervous system, CFU ~14 days, wells with DMSO or 300 nM Compound 1, read-out: Chemotherapy nM IC50s
# Method: as §1, §2
# [6] = CFU ~14 days, wells with DMSO or 300 nM Compound 1, read-out: Chemotherapy nM IC50s
# [7] = chemotherapy agent in combination with 300 nM Compound 1
structure (smiles),measurement,setting,value
"N.N.[Cl][Pt][Cl] [Cis., cisplatin]",combination MTD,[1],6 mg/kg
same,IC50,HBCx9; [6],473 nM
same,synergy score,HBCx9; [7],(−1)
same,IC50,HBCx8; [6],142 nM
same,synergy score,HBCx8; [7],(1)
same,IC50,KU1919; [6],894 nM
same,synergy score,KU1919; [7],(1)
same,IC50,5637; [6],598 nM
same,synergy score,5637; [7],(12)
same,IC50,SUM149PT; [6],> 316 nM
same,synergy score,SUM149PT; [7],(10)
same,IC50,HT1376; [6],734 nM
same,synergy score,HT1376; [7],(10)
same,IC50,HCC1806,97 nM and 130 nM
same,IC50,A549; [6],> 316 nM
same,synergy score,A549; [7],(11)
same,IC50,NCIH1650; [6],> 1000 nM
same,synergy score,NCIH1650; [7],(−1)
same,IC50,647V; [6],1780 nM
same,synergy score,647V; [7],0
same,IC50,NCIH596; [6],129 nM
same,synergy score,NCIH596; [7],(0)
same,IC50,U2OS; [6],> 316 nM
same,synergy score,U2OS; [7],(3)
same,IC50,HCT116,1260 nM and 895 nM
same,IC50,UBLC1; [6],308 nM
same,synergy score,UBLC1; [7],(−2)
same,IC50,UMUC3; [6],212 nM
same,synergy score,UMUC3; [7],(1)
same,synergy of combination with USP1 inhibitor,various cell lines,synergy was detected
same,reported MTD,[2],6 mg/kg
"COc1ncnc(C2CC2)c1-c1ncc2cnn(Cc3ccc(-c4nc(C(F)(F)F)cn4C(C)C)cc3)c2n1 [Compound 1, 6-(4-cyclopropyl-6-methoxypyrimidin-5-yl)-1-(4-(1-isopropyl-4-(trifluoromethyl)-1H-imidazol-2-yl)benzyl)-1H-pyrazolo[3,4-d]pyrimidine]",anti-tumor activity (tumor volume) of combination versus single agents,[3],superior and more prolonged anti-tumor activity
same,anti-tumor activity (tumor volume) of combination versus single agents,[4],more prolonged anti-tumor activity
same,anti-tumor activity (tumor volume) of combination versus single agents,[5],more prolonged anti-tumor activity
"Cn1nnc2c(C(N)=O)ncn2c1=O [Temozol., Temozolomide]",IC50,BECKER,< 1 nM
same,IC50,U251MG,< 1 nM
same,IC50,GOTO,< 1 nM
